Data reported in the kinase profiling compilation of Christmann-Franck et al. (2016).

Legend:
Assay in all cases: radiometric filter-binding kinase assay, Kinase HotSpot
Conditions in all cases: compound 0.5 µM; ATP 10 µM
ERBB4 (human) = ERBB4 (human) (UniProt Q15303)
NTRK2 (human) = NTRK2 (human) (UniProt Q16620)
EPHA4 (human) = EPHA4 (human) (UniProt P54764)
STK24 (human) = STK24 (human) (UniProt Q9Y6E0)
SGK3 (human) = SGK3 (human) (UniProt Q96BR1)
CAMK2A (human) = CAMK2A (human) (UniProt Q9UQM7)
HIPK1 (human) = HIPK1 (human) (UniProt Q86Z02)
TAOK2 (human) = TAOK2 (human) (UniProt Q9UL54)
CDK2 CCNA2 (human) = CDK2 CCNA2 (human) (UniProt P24941+P20248)
ULK1 (human) = ULK1 (human) (UniProt O75385)
CDC42BPA (human) = CDC42BPA (human) (UniProt Q5VT25)
MAPK11 (human) = MAPK11 (human) (UniProt Q15759)
MAPK12 (human) = MAPK12 (human) (UniProt P53778)
SLK (human) = SLK (human) (UniProt Q9H2G2)
FRK (human) = FRK (human) (UniProt P42685)
CAMK1 (human) = CAMK1 (human) (UniProt Q14012)
MAPK14 (human) = MAPK14 (human) (UniProt Q16539)
ADRBK2 (human) = ADRBK2 (human) (UniProt P35626)
PNCK (human) = PNCK (human) (UniProt Q6P2M8)
CAMK1D (human) = CAMK1D (human) (UniProt Q8IU85)
TGFBR1 (human) = TGFBR1 (human) (UniProt P36897)
MAP4K2 (human) = MAP4K2 (human) (UniProt Q12851)
MAP3K2 (human) = MAP3K2 (human) (UniProt Q9Y2U5)
RIPK2 (human) = RIPK2 (human) (UniProt O43353)
CDK1 CCNB1 (human) = CDK1 CCNB1 (human) (UniProt P06493+P14635)
LTK (human) = LTK (human) (UniProt P29376)
HIPK4 (human) = HIPK4 (human) (UniProt Q8NE63)
FER (human) = FER (human) (UniProt P16591)
CSNK1G1 (human) = CSNK1G1 (human) (UniProt Q9HCP0)
EPHA7 (human) = EPHA7 (human) (UniProt Q15375)
CAMK2B (human) = CAMK2B (human) (UniProt Q13554)
CSNK1D (human) = CSNK1D (human) (UniProt P48730)
CSNK1G3 (human) = CSNK1G3 (human) (UniProt Q9Y6M4)
EPHB2 (human) = EPHB2 (human) (UniProt P29323)
MAPKAPK5 (human) = MAPKAPK5 (human) (UniProt Q8IW41)
STK3 (human) = STK3 (human) (UniProt Q13188)
[1] = biological target: TYK2 JH1 catalytic (human) (UniProt P29597)
IGF1R (human) = IGF1R (human) (UniProt P08069)
EPHA3 (human) = EPHA3 (human) (UniProt P29320)
PDPK1 (human) = PDPK1 (human) (UniProt O15530)
FGFR2 (human) = FGFR2 (human) (UniProt P21802)
MYLK (human) = MYLK (human) (UniProt Q15746)

Sequence of RIPK2 (human) (O43353 whole entry, looked up): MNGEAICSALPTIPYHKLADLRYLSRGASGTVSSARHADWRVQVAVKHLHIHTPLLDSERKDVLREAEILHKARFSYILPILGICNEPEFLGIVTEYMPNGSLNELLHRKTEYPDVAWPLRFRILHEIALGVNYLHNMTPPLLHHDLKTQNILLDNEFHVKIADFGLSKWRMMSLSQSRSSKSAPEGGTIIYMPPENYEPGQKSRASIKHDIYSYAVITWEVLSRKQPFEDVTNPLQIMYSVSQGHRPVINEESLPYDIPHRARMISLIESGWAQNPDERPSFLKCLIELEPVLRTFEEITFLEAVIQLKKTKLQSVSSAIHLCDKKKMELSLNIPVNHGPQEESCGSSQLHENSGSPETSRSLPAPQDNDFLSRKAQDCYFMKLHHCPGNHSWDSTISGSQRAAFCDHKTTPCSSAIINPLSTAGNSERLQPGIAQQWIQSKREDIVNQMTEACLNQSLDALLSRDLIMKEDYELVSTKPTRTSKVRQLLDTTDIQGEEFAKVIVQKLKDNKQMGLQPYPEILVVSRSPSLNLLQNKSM
Sequence of FER (human) (P16591 whole entry, looked up): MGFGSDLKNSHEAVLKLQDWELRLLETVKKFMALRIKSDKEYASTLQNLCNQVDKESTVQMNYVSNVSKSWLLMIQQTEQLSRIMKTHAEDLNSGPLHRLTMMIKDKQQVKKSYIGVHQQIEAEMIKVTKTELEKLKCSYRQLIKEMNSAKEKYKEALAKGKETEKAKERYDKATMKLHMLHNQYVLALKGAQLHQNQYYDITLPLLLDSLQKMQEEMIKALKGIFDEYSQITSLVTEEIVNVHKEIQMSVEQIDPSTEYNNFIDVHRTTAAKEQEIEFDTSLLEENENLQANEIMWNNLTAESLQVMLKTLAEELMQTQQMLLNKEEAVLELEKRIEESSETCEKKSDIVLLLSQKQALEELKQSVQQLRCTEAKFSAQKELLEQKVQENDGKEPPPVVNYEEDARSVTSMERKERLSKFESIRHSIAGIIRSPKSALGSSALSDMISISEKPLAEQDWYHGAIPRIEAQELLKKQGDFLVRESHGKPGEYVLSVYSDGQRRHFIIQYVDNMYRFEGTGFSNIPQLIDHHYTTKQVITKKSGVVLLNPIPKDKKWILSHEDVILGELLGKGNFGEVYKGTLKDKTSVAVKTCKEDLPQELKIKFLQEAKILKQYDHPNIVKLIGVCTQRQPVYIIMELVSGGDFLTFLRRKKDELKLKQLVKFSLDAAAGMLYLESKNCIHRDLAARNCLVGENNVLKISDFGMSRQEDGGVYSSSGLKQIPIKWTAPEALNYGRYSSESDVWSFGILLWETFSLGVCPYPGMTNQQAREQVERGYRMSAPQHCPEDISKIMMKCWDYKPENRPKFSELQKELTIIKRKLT
Sequence of MAPK14 (human) (Q16539 whole entry, looked up): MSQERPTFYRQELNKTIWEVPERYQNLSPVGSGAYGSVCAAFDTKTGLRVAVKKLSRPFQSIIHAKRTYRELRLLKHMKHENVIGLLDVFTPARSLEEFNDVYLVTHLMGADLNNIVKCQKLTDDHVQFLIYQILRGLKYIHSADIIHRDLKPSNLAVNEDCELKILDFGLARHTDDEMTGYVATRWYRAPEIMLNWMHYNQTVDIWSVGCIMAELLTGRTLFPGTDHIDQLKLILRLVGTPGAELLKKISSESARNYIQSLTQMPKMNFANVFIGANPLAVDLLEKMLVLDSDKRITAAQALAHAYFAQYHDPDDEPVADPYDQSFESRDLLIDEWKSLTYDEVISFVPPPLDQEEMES
Sequence of STK3 (human) (Q13188 whole entry, looked up): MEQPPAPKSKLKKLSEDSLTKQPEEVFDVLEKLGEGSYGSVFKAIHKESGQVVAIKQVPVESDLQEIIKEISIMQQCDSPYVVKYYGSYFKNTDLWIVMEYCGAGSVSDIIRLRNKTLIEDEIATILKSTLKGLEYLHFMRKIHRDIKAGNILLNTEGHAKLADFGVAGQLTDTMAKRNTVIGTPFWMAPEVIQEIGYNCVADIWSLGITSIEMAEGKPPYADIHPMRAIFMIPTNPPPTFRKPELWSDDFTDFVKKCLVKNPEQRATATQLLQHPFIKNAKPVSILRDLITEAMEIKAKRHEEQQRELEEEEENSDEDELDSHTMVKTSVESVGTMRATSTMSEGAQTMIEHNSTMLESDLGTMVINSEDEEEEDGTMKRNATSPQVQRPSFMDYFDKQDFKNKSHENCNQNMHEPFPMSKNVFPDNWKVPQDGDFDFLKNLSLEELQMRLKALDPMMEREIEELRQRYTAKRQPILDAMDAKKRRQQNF
Sequence of CSNK1G3 (human) (Q9Y6M4 whole entry, looked up): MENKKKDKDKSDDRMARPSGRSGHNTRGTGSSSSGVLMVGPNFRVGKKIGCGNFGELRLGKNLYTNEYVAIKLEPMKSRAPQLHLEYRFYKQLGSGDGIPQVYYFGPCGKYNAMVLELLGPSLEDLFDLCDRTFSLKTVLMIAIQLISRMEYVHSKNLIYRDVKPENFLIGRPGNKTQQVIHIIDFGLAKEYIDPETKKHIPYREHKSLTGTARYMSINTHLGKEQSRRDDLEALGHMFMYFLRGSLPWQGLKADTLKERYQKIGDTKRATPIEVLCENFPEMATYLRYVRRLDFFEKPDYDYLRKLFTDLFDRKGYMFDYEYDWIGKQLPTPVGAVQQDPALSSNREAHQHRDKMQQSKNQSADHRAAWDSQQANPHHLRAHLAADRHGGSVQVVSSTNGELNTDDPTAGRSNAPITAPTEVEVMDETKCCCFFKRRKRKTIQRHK
Sequence of TYK2 JH1 catalytic (human) (P29597 whole entry, looked up): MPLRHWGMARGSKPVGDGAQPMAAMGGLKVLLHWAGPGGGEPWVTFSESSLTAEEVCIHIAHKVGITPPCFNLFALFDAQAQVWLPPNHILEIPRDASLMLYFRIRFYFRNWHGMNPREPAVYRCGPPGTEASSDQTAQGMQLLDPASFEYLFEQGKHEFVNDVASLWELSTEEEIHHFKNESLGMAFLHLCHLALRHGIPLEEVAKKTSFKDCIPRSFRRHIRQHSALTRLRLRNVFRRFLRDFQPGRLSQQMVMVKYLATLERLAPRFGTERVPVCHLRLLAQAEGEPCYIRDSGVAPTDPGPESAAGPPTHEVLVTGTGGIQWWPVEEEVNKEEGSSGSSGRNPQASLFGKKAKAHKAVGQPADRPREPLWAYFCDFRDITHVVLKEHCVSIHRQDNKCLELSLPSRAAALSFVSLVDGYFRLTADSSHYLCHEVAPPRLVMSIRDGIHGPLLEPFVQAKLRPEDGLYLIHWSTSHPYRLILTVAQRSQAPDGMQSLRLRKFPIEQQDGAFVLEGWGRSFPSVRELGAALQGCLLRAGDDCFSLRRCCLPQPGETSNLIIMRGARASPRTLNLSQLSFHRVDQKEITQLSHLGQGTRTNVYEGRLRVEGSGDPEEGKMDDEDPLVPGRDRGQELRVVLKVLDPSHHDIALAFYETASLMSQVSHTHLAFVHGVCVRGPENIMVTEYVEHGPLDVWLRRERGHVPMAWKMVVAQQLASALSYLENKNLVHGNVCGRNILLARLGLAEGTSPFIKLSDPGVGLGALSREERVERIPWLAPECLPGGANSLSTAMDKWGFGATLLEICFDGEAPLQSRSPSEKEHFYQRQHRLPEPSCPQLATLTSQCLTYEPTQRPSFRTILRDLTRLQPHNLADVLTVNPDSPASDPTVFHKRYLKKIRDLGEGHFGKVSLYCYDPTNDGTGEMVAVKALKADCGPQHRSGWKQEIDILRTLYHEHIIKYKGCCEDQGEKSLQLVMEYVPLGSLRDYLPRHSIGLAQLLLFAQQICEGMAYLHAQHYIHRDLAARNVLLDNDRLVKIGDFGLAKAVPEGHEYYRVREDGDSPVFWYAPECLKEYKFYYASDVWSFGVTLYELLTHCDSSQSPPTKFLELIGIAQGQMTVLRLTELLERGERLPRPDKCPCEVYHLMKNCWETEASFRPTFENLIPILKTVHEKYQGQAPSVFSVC
Sequence of ULK1 (human) (O75385 whole entry, looked up): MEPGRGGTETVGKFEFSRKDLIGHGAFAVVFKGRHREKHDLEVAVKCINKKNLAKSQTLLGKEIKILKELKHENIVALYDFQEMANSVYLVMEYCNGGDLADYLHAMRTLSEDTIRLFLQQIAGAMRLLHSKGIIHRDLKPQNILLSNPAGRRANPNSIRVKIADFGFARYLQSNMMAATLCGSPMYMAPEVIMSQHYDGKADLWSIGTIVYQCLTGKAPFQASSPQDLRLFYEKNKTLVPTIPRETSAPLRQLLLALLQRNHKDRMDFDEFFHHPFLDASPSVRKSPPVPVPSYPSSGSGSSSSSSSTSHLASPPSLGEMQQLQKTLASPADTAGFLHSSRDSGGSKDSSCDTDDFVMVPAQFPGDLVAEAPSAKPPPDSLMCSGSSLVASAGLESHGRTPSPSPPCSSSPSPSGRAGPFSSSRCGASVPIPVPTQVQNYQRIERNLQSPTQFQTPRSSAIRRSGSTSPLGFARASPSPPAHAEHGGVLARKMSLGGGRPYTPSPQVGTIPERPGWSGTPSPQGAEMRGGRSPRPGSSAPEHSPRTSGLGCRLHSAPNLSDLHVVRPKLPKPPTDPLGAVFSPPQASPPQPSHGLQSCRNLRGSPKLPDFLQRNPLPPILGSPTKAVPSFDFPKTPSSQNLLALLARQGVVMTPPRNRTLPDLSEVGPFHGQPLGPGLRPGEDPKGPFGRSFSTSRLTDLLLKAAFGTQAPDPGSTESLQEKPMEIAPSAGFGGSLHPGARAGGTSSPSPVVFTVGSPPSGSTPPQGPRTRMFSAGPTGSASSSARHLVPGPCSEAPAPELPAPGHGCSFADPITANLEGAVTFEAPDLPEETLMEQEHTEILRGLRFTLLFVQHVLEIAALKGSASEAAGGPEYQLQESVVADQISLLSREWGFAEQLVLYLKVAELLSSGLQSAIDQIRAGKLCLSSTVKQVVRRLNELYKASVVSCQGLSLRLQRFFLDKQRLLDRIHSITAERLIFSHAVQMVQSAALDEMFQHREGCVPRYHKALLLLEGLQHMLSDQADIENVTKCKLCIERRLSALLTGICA

`O=c1cc(-c2cccc3c2Sc2ccccc2S3)oc(N2CCOCC2)c1` gave a residual activity (ERBB4 (human)) of 105%, a residual activity (NTRK2 (human)) of 99.1% and a residual activity (EPHA4 (human)) of 101%. It also gave a residual activity (STK24 (human)) of 97.8%, a residual activity (SGK3 (human)) of 98.6% and a residual activity (CAMK2A (human)) of 100%. The residual activity (HIPK1 (human)) was 99.6%, the residual activity (TAOK2 (human)) was 101% and the residual activity (CDK2 CCNA2 (human)) was 101%. It also gave a residual activity (ULK1 (human)) of 91.9%, a residual activity (CDC42BPA (human)) of 106% and a residual activity (MAPK11 (human)) of 102%. It also gave a residual activity (MAPK12 (human)) of 114%, a residual activity (SLK (human)) of 93.5% and a residual activity (FRK (human)) of 99.5%. The residual activity (CAMK1 (human)) was 94.2%, the residual activity (MAPK14 (human)) was 99.3% and the residual activity (ADRBK2 (human)) was 100%. The residual activity (PNCK (human)) was 109%, the residual activity (CAMK1D (human)) was 106% and the residual activity (TGFBR1 (human)) was 98%. The residual activity (MAP4K2 (human)) was 109%, the residual activity (MAP3K2 (human)) was 92.7% and the residual activity (RIPK2 (human)) was 114%. For the same molecule, the residual activity (CDK1 CCNB1 (human)) was 88.5%, the residual activity (LTK (human)) was 94.1% and the residual activity (HIPK4 (human)) was 100%. The residual activity (FER (human)) was 103%, the residual activity (CSNK1G1 (human)) was 99.3% and the residual activity (EPHA7 (human)) was 106%. For the same molecule, the residual activity (CAMK2B (human)) was 106%, the residual activity (CSNK1D (human)) was 106% and the residual activity (CSNK1G3 (human)) was 87.9%. For the same molecule, the residual activity (EPHB2 (human)) was 102%, the residual activity (MAPKAPK5 (human)) was 94.5% and the residual activity (STK3 (human)) was 101%. For the same molecule, the residual activity [1] was 95.8%, the residual activity (IGF1R (human)) was 98.2% and the residual activity (EPHA3 (human)) was 119%. For the same molecule, the residual activity (PDPK1 (human)) was 104%, the residual activity (FGFR2 (human)) was 98.7% and the residual activity (MYLK (human)) was 102%.
With `NC(=O)c1ccc(N(C(N)=O)c2c(F)cccc2F)nc1-c1ccc(F)cc1F` the residual activity (ERBB4 (human)) was 98.1%, the residual activity (NTRK2 (human)) was 102% and the residual activity (EPHA4 (human)) was 105%. It also gave a residual activity (STK24 (human)) of 105%, a residual activity (SGK3 (human)) of 99.9% and a residual activity (CAMK2A (human)) of 90.9%. For the same molecule, the residual activity (HIPK1 (human)) was 100%, the residual activity (TAOK2 (human)) was 98.7% and the residual activity (CDK2 CCNA2 (human)) was 87.8%. It also gave a residual activity (ULK1 (human)) of 104%, a residual activity (CDC42BPA (human)) of 93.8% and a residual activity (MAPK11 (human)) of 22.3%. The residual activity (MAPK12 (human)) was 92.1%, the residual activity (SLK (human)) was 90.7% and the residual activity (FRK (human)) was 106%. It also gave a residual activity (CAMK1 (human)) of 98.1%, a residual activity (MAPK14 (human)) of 5.23% and a residual activity (ADRBK2 (human)) of 98.1%. It also gave a residual activity (PNCK (human)) of 108%, a residual activity (CAMK1D (human)) of 114% and a residual activity (TGFBR1 (human)) of 96.7%. It also gave a residual activity (MAP4K2 (human)) of 108%, a residual activity (MAP3K2 (human)) of 122% and a residual activity (RIPK2 (human)) of 101%. For the same molecule, the residual activity (CDK1 CCNB1 (human)) was 95.7%, the residual activity (LTK (human)) was 95% and the residual activity (HIPK4 (human)) was 90.5%. The residual activity (FER (human)) was 95.6%, the residual activity (CSNK1G1 (human)) was 102% and the residual activity (EPHA7 (human)) was 79.9%. For the same molecule, the residual activity (CAMK2B (human)) was 104%, the residual activity (CSNK1D (human)) was 89.8% and the residual activity (CSNK1G3 (human)) was 103%. It also gave a residual activity (EPHB2 (human)) of 107%, a residual activity (MAPKAPK5 (human)) of 93.4% and a residual activity (STK3 (human)) of 94.1%. It also gave a residual activity [1] of 93.5%, a residual activity (IGF1R (human)) of 92.3% and a residual activity (EPHA3 (human)) of 97%. The residual activity (PDPK1 (human)) was 87.4%, the residual activity (FGFR2 (human)) was 99.5% and the residual activity (MYLK (human)) was 101%.
`CC(C)[C@H](CO)Nc1nc(Nc2cccc(Cl)c2)c2ncn(C(C)C)c2n1` showed a residual activity (ERBB4 (human)) of 78.4%, a residual activity (NTRK2 (human)) of 33.4% and a residual activity (EPHA4 (human)) of 102%. For the same molecule, the residual activity (STK24 (human)) was 80.8%, the residual activity (SGK3 (human)) was 97.6% and the residual activity (CAMK2A (human)) was 101%. It also gave a residual activity (HIPK1 (human)) of 103%, a residual activity (TAOK2 (human)) of 91.3% and a residual activity (CDK2 CCNA2 (human)) of 6.91%. For the same molecule, the residual activity (ULK1 (human)) was 67.5%, the residual activity (CDC42BPA (human)) was 92.3% and the residual activity (MAPK11 (human)) was 109%. It also gave a residual activity (MAPK12 (human)) of 106%, a residual activity (SLK (human)) of 73.1% and a residual activity (FRK (human)) of 90.2%. For the same molecule, the residual activity (CAMK1 (human)) was 110%, the residual activity (MAPK14 (human)) was 99.4% and the residual activity (ADRBK2 (human)) was 99.1%. It also gave a residual activity (PNCK (human)) of 97.8%, a residual activity (CAMK1D (human)) of 103% and a residual activity (TGFBR1 (human)) of 103%. It also gave a residual activity (MAP4K2 (human)) of 97.6%, a residual activity (MAP3K2 (human)) of 97.8% and a residual activity (RIPK2 (human)) of 88.1%. It also gave a residual activity (CDK1 CCNB1 (human)) of 34.9%, a residual activity (LTK (human)) of 100% and a residual activity (HIPK4 (human)) of 88.7%. For the same molecule, the residual activity (FER (human)) was 62.9%, the residual activity (CSNK1G1 (human)) was 28% and the residual activity (EPHA7 (human)) was 86.8%. The residual activity (CAMK2B (human)) was 94.3%, the residual activity (CSNK1D (human)) was 92.2% and the residual activity (CSNK1G3 (human)) was 17.3%. It also gave a residual activity (EPHB2 (human)) of 99.3%, a residual activity (MAPKAPK5 (human)) of 97.6% and a residual activity (STK3 (human)) of 90.8%. The residual activity [1] was 95.2%, the residual activity (IGF1R (human)) was 100% and the residual activity (EPHA3 (human)) was 105%. For the same molecule, the residual activity (PDPK1 (human)) was 91.6%, the residual activity (FGFR2 (human)) was 105% and the residual activity (MYLK (human)) was 95.1%.
`Oc1ccc(-c2nc(-c3ccc(F)cc3)c(-c3ccncc3)[nH]2)cc1` gave a residual activity (ERBB4 (human)) of 83.1%, a residual activity (NTRK2 (human)) of 102% and a residual activity (EPHA4 (human)) of 96.2%. It also gave a residual activity (STK24 (human)) of 95.2%, a residual activity (SGK3 (human)) of 98.4% and a residual activity (CAMK2A (human)) of 104%. The residual activity (HIPK1 (human)) was 98.2%, the residual activity (TAOK2 (human)) was 94.7% and the residual activity (CDK2 CCNA2 (human)) was 101%. The residual activity (ULK1 (human)) was 89%, the residual activity (CDC42BPA (human)) was 94% and the residual activity (MAPK11 (human)) was 32.8%. For the same molecule, the residual activity (MAPK12 (human)) was 102%, the residual activity (SLK (human)) was 91.2% and the residual activity (FRK (human)) was 90.4%. It also gave a residual activity (CAMK1 (human)) of 108%, a residual activity (MAPK14 (human)) of 7.42% and a residual activity (ADRBK2 (human)) of 99.3%. The residual activity (PNCK (human)) was 99.7%, the residual activity (CAMK1D (human)) was 102% and the residual activity (TGFBR1 (human)) was 108%. For the same molecule, the residual activity (MAP4K2 (human)) was 101%, the residual activity (MAP3K2 (human)) was 95% and the residual activity (RIPK2 (human)) was 46.8%. The residual activity (CDK1 CCNB1 (human)) was 99%, the residual activity (LTK (human)) was 97.1% and the residual activity (HIPK4 (human)) was 89.7%. For the same molecule, the residual activity (FER (human)) was 94.5%, the residual activity (CSNK1G1 (human)) was 97.3% and the residual activity (EPHA7 (human)) was 86.1%. It also gave a residual activity (CAMK2B (human)) of 96.4%, a residual activity (CSNK1D (human)) of 16.8% and a residual activity (CSNK1G3 (human)) of 102%. It also gave a residual activity (EPHB2 (human)) of 105%, a residual activity (MAPKAPK5 (human)) of 102% and a residual activity (STK3 (human)) of 105%. For the same molecule, the residual activity [1] was 106%, the residual activity (IGF1R (human)) was 108% and the residual activity (EPHA3 (human)) was 99%. It also gave a residual activity (PDPK1 (human)) of 98.2%, a residual activity (FGFR2 (human)) of 103% and a residual activity (MYLK (human)) of 106%.
